Measurements taken from US11420967B2 (priority 2018, dated 2022).
Values after ≈ are worked out from the molar mass of the structure shown. Like-named read-outs stand apart in the source and are kept apart here.

Key:
[1] = system: T98G cells; test: Antitumor activity in T98G cells in culture (WST-1 cell viability); format: cell-based, human; details: for EC50: read-out: EC50
Method: Unless otherwise noted, maximal efficacies were measured at 10 μM. Data are the mean of at least three independent experiments performed in triplicate.
(§1) Cell culture. Cells were cultured in DMEM supplemented with 10% FBS, 100 U/mL penicillin, and 100 μg/mL streptomycin at 37° C. in a 5% CO2 humidified atmosphere. T98G and HepG2 cells (ATCC, Manassas, Va.) were authenticated by ATCC when purchased using human short tandem repeat analysis and maintained in culture for less than 6 months. Tumors were obtained from surgeries performed at the Swedish Medical Center (Seattle, Wash.) according to Institutional Review Board guidelines. Patient samples used in this study were diagnosed as WHO grade IV glioblastoma multiforme. Patient-derived GBM cells were established from the freshly resected tumor tissues and maintained in NeuroCult® NSA medium (Stem Cell Technologies) with B-27 serum-free supplement, 20 ng/mL epidermal growth factor and 20 ng/mL fibroblast growth factor 2 as previously described.
(§2) Cell viability. […] Maximal % killing was calculated as the % reduction in cell viability measured at all drug concentration. EC50 values were calculated and reported only when a curve was reliably extrapolated by Prism software. The solvent for all modified carbazoles was DMSO (0.1% final).

[2] = system: PD-GBM (proneural); test: Cell-killing activity in patient-derived GBM cells, proneural subtype (WST-1); format: cell-based, human; details: for EC50: Homo sapiens
Method: (§3) To explore further the therapeutic potential of the compounds of the disclosure, the antitumor activity in human patient-derived GBM (PD-GBM) cells was measured in culture. Specifically, these cells represent a recognized preclinical model system for testing for the efficacy of novel treatments of GBM as they are categorized by their mutation profile in three subtypes (i.e., proneural, mesenchymal and classical) that may differentially respond to treatment. To test for potential liver toxicity, the human liver cell line HepG2, a commonly used cell culture model system, was treated. […] Data are the mean of at least three independent experiments performed in triplicate.
(§4) Cell viability was measured by quantifying changes in cell-permeable WST-1 color 3 days after treatment.
as §1, §2

[3] = system: PD-GBM (classical); test: Cell-killing activity in patient-derived GBM cells, classical subtype (WST-1); format: cell-based, human; details: for EC50: Homo sapiens, 72 h
Method: as §3, §4, §1, §2

[4] = system: PD-GBM (mesenchymal); test: Cell-killing activity in patient-derived GBM cells, mesenchymal subtype (WST-1); format: cell-based, human; details: for EC50: Homo sapiens, 72 h
Method: as §3, §4, §1, §2

[5] = target: T1, colchicine site of tubulin (purified tubulin) (Bos taurus, UniProt P81947+Q6B856); test: [3H]colchicine binding to purified tubulin; design: species or system bovine
T1 construct: from tissue; host or cells: native tubulin
Method: (§5) Results are mean±SEM from n=4-5 independent experiments performed in triplicates. […] Results are from 3 independent experiments performed in duplicate.
First, it was determined whether compounds of the disclosure compete for [^3H]colchicine binding to native purified tubulin as previously described.
[^3H]Colchicine binding to purified tubulin and tubulin assembly. [^3H]Colchicine binding to purified tubulin and tubulin assembly (as assessed by turbidity development in purified bovine tubulin solutions) were both measured as previously described.

[6] = target: T2, sheared MTs / bovine brain tubulin (Bos taurus, UniProt P81947+Q6B856); test: MT-tubulin partitioning (free tubulin pelleting assay, gel quantification); format: biochemical
T2 construct: Bovine brain tubulin was purified, polymerized into MTs and sheared; from tissue; host or cells: bovine brain
Method: as §5
Next tested was their ability to inhibit the assembly of purified tubulin using an in vitro turbidity assay as previously described. […] In this assay, compounds are incubated with sheared MTs at 37° C. and the resulting amounts of tubulin dimers (free tubulin) and polymer (MT) after 15 min is measured on polyacrylamide gels.
MT-tubulin partitioning. Bovine brain tubulin was purified, polymerized into MTs and sheared as previously described. Sheared MTs and drugs were incubated at 37° C. for 15 min and centrifuged for 10 min at 42,000 rpm at 37° C. prior to separation into supernatants containing free tubulin and pellets containing polymerized MTs as previously described. […] Peak intensities were quantified using ImageJ.

[7] = system: HT-29 cells; test: Cell-killing activity in HT-29 cells; format: cell-based, human; details: for EC50: Homo sapiens
[8] = Experimental toxicity study of i.p. injection in mouse (MTD, NOAEL); format: in vivo; details: for Maximal tolerated dose, Acute mouse: one i.p. injection; for Maximal tolerated dose, 28 Days Mouse (mg/kg bdip): repeated (28 days) i.p. injections
[9] = Experimental toxicity study of i.p. injection in rat (MTD); format: in vivo; details: one i.p. injection
[10] = Solubility in pharmaceutical compositions for in vivo testing; format: physicochemical; details: for solubility at 2 weeks: aqueous with cosolvent or surfactant or cyclodextrin
Source text: Several pharmaceutical compositions comprising compound 19 were developed for in vivo testing in mice.

[11] = system: resistant patient-derived melanocytes expressing BRAF mutations (V600E); test: Combination with PLX4032 in resistant patient-derived melanocytes (BRAF V600E); format: cell-based, human; details: PLX4032 1 μM; low concentrations of 19
[12] = system: microtubule network in Hct116 cells; test: Mitosis arrest and microtubule network imaging in Hct116 cells; format: cell-based
Method: FIG. 27 illustrates the mitosis arrest and disruption of microtubule network in […] cells in culture by the compound of disclosure. A: Hct116 cells were treated with either vehicle control (0 nM; DMSO 1:1000) or 19 (50, 100 or 200 nM) for 4 hours, fixed-stained and imaged for DNA (DAPI staining), tubulin (anti-tubulin α) and centrosomes (anti-pericentin). […] Representative images (Scale bar=5 μm). B: Hct116 cells were treated with either vehicle control (0 nM; DMSO 1:1000) or 19 (2.5, 10 or 20 nM) for 24 hours, fixed-stained and imaged for tubulin (anti-tubulin a). […] Representative images (Scale bar=15 μm) imaged with an InCell 2500 system.
As provided in FIG. 25, compound 19 binds to the colchicine site of tubule and triggers microtubule (MT) disassembly in vitro. Compound 19 also reduces MT assembly rate in Hct116 cells, this response is partial at low concentration and complete at higher concentration, and in both case reversible (FIG. 26).

[13] = system: Colo205 cells; test: Cell-killing activity in Colo205 cells; details: for EC50: Colo205 cells

T1 sequence (Q6B856 whole entry): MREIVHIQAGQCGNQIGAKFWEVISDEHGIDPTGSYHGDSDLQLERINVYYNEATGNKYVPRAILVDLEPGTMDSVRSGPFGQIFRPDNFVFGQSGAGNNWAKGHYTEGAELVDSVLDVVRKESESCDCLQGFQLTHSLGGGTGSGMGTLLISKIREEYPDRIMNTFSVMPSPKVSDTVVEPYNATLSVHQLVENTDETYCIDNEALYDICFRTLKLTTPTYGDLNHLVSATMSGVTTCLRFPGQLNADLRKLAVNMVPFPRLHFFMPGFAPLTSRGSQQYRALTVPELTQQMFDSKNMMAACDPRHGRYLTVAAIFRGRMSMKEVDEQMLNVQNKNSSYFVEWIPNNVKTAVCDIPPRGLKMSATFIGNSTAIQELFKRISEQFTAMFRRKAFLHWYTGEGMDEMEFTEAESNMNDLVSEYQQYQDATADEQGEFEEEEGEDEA
T1 sequence (P81947 whole entry): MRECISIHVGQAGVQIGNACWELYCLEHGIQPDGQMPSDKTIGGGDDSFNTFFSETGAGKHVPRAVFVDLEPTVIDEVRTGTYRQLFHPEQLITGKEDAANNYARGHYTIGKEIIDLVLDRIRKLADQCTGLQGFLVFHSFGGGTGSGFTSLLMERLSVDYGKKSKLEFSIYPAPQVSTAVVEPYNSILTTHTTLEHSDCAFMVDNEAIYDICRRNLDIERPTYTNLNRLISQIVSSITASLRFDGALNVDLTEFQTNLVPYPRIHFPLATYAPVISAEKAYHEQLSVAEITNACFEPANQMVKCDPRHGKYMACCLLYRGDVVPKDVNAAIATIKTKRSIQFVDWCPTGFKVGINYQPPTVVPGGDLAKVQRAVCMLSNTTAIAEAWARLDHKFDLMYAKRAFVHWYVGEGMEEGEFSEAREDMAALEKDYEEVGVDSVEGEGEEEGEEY
T2 sequence (Q6B856 whole entry): as the sequence (Q6B856 whole entry) above
T2 sequence (P81947 whole entry): as the sequence (P81947 whole entry) above

## CCn1c2ccccc2c2cc(C(O)c3cccc4ncccc34)ccc21 (racemic) [Compound 19, (9-ethyl-9H-carbazol-3-yl)(quinolin-5-yl)methanol]
[1]; Homo sapiens, T98G cells in culture (FIG. 19)
  EC50: 53 nM
[2]; 72 h, Cell ID SN227, proneuronal, WST-1, 3 days
  EC50: 90 nM
[3]; Cell ID SN243, classical, WST-1, 3 days, read-out: EC50
  EC50: 34 nM
[3]; Cell ID SN262, classical, WST-1, 3 days, read-out: EC50
  EC50: 47 nM
[3]; Cell ID SN264, classical, WST-1, 3 days, read-out: EC50
  EC50: 102 nM
[4]; Cell ID SN260, mesenchymal, WST-1, 3 days, read-out: EC50
  EC50: 79 nM
[4]; Cell ID SN276, mesenchymal, WST-1, 3 days, read-out: EC50
  EC50: 17 nM
[5]; glass fiber filtering assay, FIG. 25A, read-out: IC50 of competition for [3H]Colchicine binding
  IC50: 719 nM
[6]; free tubulin pelleting assay
  effect on MT assembly/disassembly, MT-free tubulin partitioning (in words): triggers microtubule disassembly
[7]; HT29 cells, low concentrations
  combination with paclitaxel (in words): synergistic activity
[7]; HT-29 cells, read-out: EC50
  EC50: 73 nM
[8]; in vivo, intraperitoneal, histopathology of 22 organs after repeated (28 days) mouse administration, read-out: No-observed-adverse-effect-level (NOAEL)
  NOAEL at 28 days: 20 mg/kg
[8]
  Maximal tolerated dose, Acute mouse: 150 mg/kg
  Maximal tolerated dose, 28 Days Mouse (mg/kg bdip): 20 mg/kg bdip
[9]
  Maximal tolerated dose, Acute Rat: 50 mg/kg
[10]; 60 mM in 10% DMSO in DPBS
  solubility (in words): insoluble
[10]; 60 mM in 20% CRE in DPBS
  solubility (in words): partially soluble
[10]; in (a) 10% DMSO and 20% CRE in DPBS, (b) 5% EtOH and 10% CRE in DPBS, (c) 5% EtOH and 20% CRE in DPBS, −4° C. for 2 weeks, read-out: concentration at which found to be soluble
  solubility at 2 weeks: 60 mM (≈ 21.1 mg/mL)
[11]
  combination with PLX4032 (in words): Synergistic activity
[12]; 2.5, 10 or 20 nM for 24 hours
  effect on MT network (in words): disrupts MT network in a concentration-dependent manner
[12]; 50, 100 or 200 nM for 4 hours
  effect on mitosis, prometaphase (in words): increases the presence of disrupted MT arising from the centrosome during prometaphase and of misaligned chromosomes in a concentration-dependent manner
[13]
  combination with 5-FU (in words): synergistic activity
  EC50: 51 nM

## CCn1c2ccccc2c2cc(C(=O)c3cccc4ncccc34)ccc21 [Compound 20, 9-ethyl-3-(quinoline-5-carbonyl)-9H-carbazole]
[1]; Homo sapiens, T98G, T98G cells, rounded values of the discussion, read-out: maximal efficacy at killing T98G cells
  Emax: 74%
[1]; Homo sapiens, T98G cells, WST-1, 72 hours after treatment
  EC50: 184 nM
[1]; T98G cells
  reduction of maximal antitumor efficacy relative to compound 25: 29%
[1]; T98G cells, at 1 μM, 72 hours
  maximal killing (% ± SEM): 74.4%
[2]; PD-GBM (proneural), WST-1, 72 hours
  EC50: 316 nM
[2]; PD-GBM (proneural), at 1 μM
  maximal killing (% ± SEM): 44.8% ± 10.5
[3]
  EC50: 407 nM
[3]; PD-GBM (classical), at 1 μM
  maximal killing (% ± SEM): 53.9% ± 4.2
[4]
  EC50: 335 nM
[4]; PD-GBM (mesenchymal), at 1 μM
  maximal killing (% ± SEM): 58.9% ± 1.4
[5]; read-out: Colchicine Binding % inhibition (mean ± SD) at 1 μM
  inhibition at 1 µM: 61 ± 4%
[5]; read-out: Colchicine Binding % inhibition (mean ± SD) at 5 μM
  inhibition at 5 µM: 91 ± 1%
[6]; MT-Tubulin Partitioning IC50 (μM) (mean), sheared MTs at 37° C., 15 min
  IC50: 3.4 µM
[7]; HT-29
  EC50: > 100000 nM
[8]
  Maximal tolerated dose, Acute mouse: 160 mg/kg
  Maximal tolerated dose, 28 Days Mouse (mg/kg bdip): 50 mg/kg bdip
[9]
  Maximal tolerated dose, Acute Rat: 200 mg/kg
[10]; -4 °C
  solubility at 2 weeks: 45 mM (≈ 15.8 mg/mL)
[13]
  EC50: > 948 nM
